Measured values: PMC2823940 (Bioorganic chemistry, 2009)
“Also recorded” adds a separate entry of the source.

Assays:
HpAgD [1] = biological target: T1, HpAgD (Helicobacter pylori, UniProt O24890); experiment: Determination of IC50 values against HpAgD; assay type: biochemical; settings: for inhibition of HpAgD: concentrations as high as 500 μM
PAD4 = PAD4 (Homo sapiens, UniProt Q9UM07); experiment: PAD4 inhibition; assay type: biochemical; settings: for inhibition of PAD4: concentrations as high as 1 mM
HpAgD [2] = biological target: T1, HpAgD; experiment: Inactivation kinetics of HpAgD; assay type: biochemical
HpAgD [3] = biological target: T1, HpAgD; experiment: Irreversibility of inactivation; assay type: biochemical; settings: 1.0 mM inhibitor, 1 h at 37 °C, dialyzed 20 h
HpAgD [4] = biological target: T1, HpAgD; experiment: Substrate protection experiments; assay type: biochemical; settings: agmatine 0.5 vs 1.0 mM; ABFA 500 μM or ABCA 175 μM
HpAgD [5] = biological target: T1, HpAgD; experiment: Site of inactivator modification; settings: 5 eq. inactivator, 30 min, tryptic digest
[6] = Stability in aqueous buffer; assay type: physicochemical; settings: not shown
[7] = biological target: Helicobacter pylori agmatine deiminase (HpAgD), untagged wild type (Helicobacter pylori) (UniProt O24890); experiment: SEC
HpAgD [8] = biological target: T1, HpAgD; experiment: Metal inhibition of HpAgD; assay type: biochemical; settings: 15 min pre-incubation with metal ion, 5.0 mM agmatine
Wild Type HpAgD = biological target: T2, Wild Type HpAgD (Helicobacter pylori, UniProt O24890); experiment: HpAgD activity assay; settings: for ability to serve as HpAgD substrate: known PAD substrates
T2 sequence (O24890 1-330): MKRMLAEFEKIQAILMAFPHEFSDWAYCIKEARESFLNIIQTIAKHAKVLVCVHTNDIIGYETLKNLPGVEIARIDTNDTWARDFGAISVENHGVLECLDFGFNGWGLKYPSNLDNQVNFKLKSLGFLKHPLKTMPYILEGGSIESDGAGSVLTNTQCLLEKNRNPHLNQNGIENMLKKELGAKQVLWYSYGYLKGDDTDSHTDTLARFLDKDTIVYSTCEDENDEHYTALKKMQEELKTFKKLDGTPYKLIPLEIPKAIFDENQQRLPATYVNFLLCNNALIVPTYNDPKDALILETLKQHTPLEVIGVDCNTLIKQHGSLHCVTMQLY

D198A HpAgD = assay type: biochemical, Helicobacter pylori
N=C(N)NCCCCN = experiment: purified protein, by the assay type; settings: other: steady state, D198A HpAgD; pH 8.0; 37.0 °C
[9] = substrate: N=C(N)NCCCCN; experiment: purified protein, by the assay type; settings: other: steady state, Wild Type HpAgD, pH 8.0, 37 °C
[10] = read-out: IC50 HpAgD, 15 min pre-incubation, 0.5 mM Agmatine

Chain of PAD4 (Q9UM07 whole entry): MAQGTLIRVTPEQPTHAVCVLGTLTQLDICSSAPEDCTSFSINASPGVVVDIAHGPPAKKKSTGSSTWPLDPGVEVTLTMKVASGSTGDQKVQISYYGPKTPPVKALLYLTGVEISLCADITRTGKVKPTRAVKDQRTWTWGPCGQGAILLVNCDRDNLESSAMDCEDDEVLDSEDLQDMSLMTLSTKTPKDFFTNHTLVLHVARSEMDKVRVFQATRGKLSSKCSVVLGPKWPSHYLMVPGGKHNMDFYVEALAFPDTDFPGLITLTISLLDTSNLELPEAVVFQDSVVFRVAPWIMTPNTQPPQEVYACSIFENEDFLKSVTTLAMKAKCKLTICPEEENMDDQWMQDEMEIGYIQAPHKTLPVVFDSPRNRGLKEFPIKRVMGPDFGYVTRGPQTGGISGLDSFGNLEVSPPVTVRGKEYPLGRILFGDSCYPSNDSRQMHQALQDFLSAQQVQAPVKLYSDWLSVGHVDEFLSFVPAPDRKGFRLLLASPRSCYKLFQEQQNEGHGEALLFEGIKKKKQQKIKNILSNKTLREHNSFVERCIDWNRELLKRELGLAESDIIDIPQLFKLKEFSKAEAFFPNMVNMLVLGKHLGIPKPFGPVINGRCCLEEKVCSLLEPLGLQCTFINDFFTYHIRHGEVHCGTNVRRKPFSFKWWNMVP

With `N=C(CF)NCCCCN` [ABFA, N-(4-aminobutyl)-2-fluoro-ethanimidamide] the IC50 (HpAgD [1]) was 6.8 ± 0.26 µM, the IC50 (PAD4) was greater than 1000 µM and the “inhibition of PAD4” value (PAD4) was “essentially no inhibition was observed”. The Ki (HpAgD [2]) was 530 ± 150 µM, the kinact/KI (HpAgD [2]) was 66.7 M⁻¹ s⁻¹ and the “residual activity after dialysis (irreversibility)” value (HpAgD [3]) was “enzyme activity was not recovered; also recorded: irreversibly inhibit HpAgD”. The “substrate protection against inactivation” value (HpAgD [4]) was “substrate can protect against enzyme inactivation”, the site of modification (HpAgD [5]) was “modifying Cys324” and the “stability in aqueous buffer” value [6] was “excellent stability”.

In the case of “Helicobacter pylori agmatine deiminase (HpAgD), untagged wild type (from UniProt O24890 1-330) (enzyme)”, the stoichiometry N [7] is reported as 2.

`[Co+2]` [Co^2+] showed an IC50 (HpAgD [8]) of 13 ± 5.5 µM.

In the case of `[Ni+2]` [Ni^2+], the IC50 (HpAgD [8]) is reported as 100 ± 3.9 µM.

In the case of `COC(=O)[C@H](CCCNC(=N)N)NC(=O)c1ccccc1` [BAME, N-α-Benzoyl-L-arginine methyl ester], the “ability to serve as HpAgD substrate” value (Wild Type HpAgD) is reported as “none of these compounds served as a substrate”.

With `NC(=O)[C@H](CCCN=C(N)N)NC(=O)c1ccccc1` [BAA, N-α-Benzoyl-L-arginine amide] the “ability to serve as HpAgD substrate” value (Wild Type HpAgD) was “none of these compounds served as a substrate”.

In the case of `NC(=O)[C@H](CCCN=C(N)CF)NC(=O)c1ccccc1` [F-amidine], the “inhibition of HpAgD” value (HpAgD [1]) is reported as “did not afford HpAgD inhibition” and the IC50 (HpAgD [1]; [10]) is reported as greater than 500 µM.

In the case of `NCCCCN=C(N)N` [Agmatine], the “decrease in kcat, D198A vs wild type” value (D198A HpAgD) is reported as 17 fold, the “increase in Km, D198A vs wild type” value (D198A HpAgD) is reported as 5 fold and the “rate (kcat/Km) relative to all other substrates tested” value (Wild Type HpAgD; Wild Type HpAgD) is reported as > 10^4 fold. For the same molecule, the kcat (Wild Type HpAgD; steady state, Wild Type HpAgD, pH 8.0, 37 °C) was ~ 5 min^−1.

For `CCOC(=O)[C@H](CCCN=C(N)N)NC(=O)c1ccccc1` [BAEE, N-α-Benzoyl-L-arginine ethyl ester], the “ability to serve as HpAgD substrate” value (Wild Type HpAgD) was “none of these compounds served as a substrate”.

In the case of `N=C(CCl)NCCCCN` [ABCA, N-(4-aminobutyl)-2-chloro-ethanimidamide], the IC50 (HpAgD [1]) is reported as 0.87 ± 0.03 µM, the IC50 (PAD4) is reported as greater than 1000 µM and the “inhibition of PAD4” value (PAD4) is reported as “essentially no inhibition was observed”. For the same molecule, the Ki (HpAgD [2]) was 1200 ± 234 µM, the kinact/KI (HpAgD [2]) was 208 M⁻¹ s⁻¹ and the “residual activity after dialysis (irreversibility)” value (HpAgD [3]) was “enzyme activity was not recovered; also recorded: irreversibly inhibit HpAgD”. The “substrate protection against inactivation” value (HpAgD [4]) was “substrate can protect against enzyme inactivation”, the site of modification (HpAgD [5]) was “modifying Cys324” and the “stability in aqueous buffer” value [6] was “excellent stability”.

With “D198A HpAgD (Helicobacter pylori 26695; D198A)” the Km (N=C(N)NCCCCN) was 170 ± 79.8 µM, the kcat (N=C(N)NCCCCN) was 0.00467 s⁻¹ and the kcat/Km (N=C(N)NCCCCN) was 28.3 M⁻¹ s⁻¹.

In the case of `NC(=O)[C@H](CCCN=C(N)CCl)NC(=O)c1ccccc1` [Cl-amidine], the “inhibition of HpAgD” value (HpAgD [1]) is reported as “did not afford HpAgD inhibition” and the IC50 (HpAgD [1]; [10]) is reported as greater than 500 µM.

With “Ac-SGRGK-COO^− (Ac-SGRGK-OH; UniProt P62805 2-6, looked up, fragment) [Ac-H4-5]” the “ability to serve as HpAgD substrate” value (Wild Type HpAgD) was “none of these compounds served as a substrate”.

`[Zn+2]` [Zn^2+] showed an IC50 (HpAgD [8]) of 30 ± 3 µM.

B1: Wild Type HpAgD (Helicobacter pylori 26695) (protein)
chain: T2 sequence (O24890 1-330)
In the case of B1, the Km [9] is reported as 33 ± 8.8 µM, the kcat [9] is reported as 0.0817 s⁻¹ and the kcat/Km [9] is reported as 2450 M⁻¹ s⁻¹.
